{
  "source": "paper PMC7114507",
  "about": "(Virus Research, 2010)",
  "target": "T1, recHE4 (Isavirus salaris, UniProt Q9J0Y0)",
  "T1 sequence (Q9J0Y0 17-353)": "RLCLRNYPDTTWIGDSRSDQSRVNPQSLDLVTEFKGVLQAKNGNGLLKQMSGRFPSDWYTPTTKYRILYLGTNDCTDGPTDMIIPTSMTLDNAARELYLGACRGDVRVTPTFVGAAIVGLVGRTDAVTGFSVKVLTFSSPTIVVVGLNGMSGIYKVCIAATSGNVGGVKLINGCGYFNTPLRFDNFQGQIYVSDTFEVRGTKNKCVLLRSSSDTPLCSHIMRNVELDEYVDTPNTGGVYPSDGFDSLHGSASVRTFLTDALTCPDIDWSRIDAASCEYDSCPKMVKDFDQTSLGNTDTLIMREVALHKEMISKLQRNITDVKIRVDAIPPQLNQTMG",
  "test": "fluorescence acetylesterase assay, recHE on cobalt beads",
  "assay_type": "biochemical",
  "details": "0-500 uM substrate, PBS pH 7.4, RT; bead-bound",
  "data": [
    {"compound": "CC(=O)Oc1ccc2c(C)cc(=O)oc2c1", "note": "[4-methylumbelliferyl acetate]", "values": [
      {"measurement": "fluorescence acetylesterase assay, recHE on cobalt beads", "result": "recHE4 and recHE7 proteins exhibit similar acetylesterase activities with all substrate concentrations tested"}
    ]}
  ]
}
